This series can be described thus: photoluminescence quantum yield (fraction); solvent given as SMILES.
Where [1] appears, read: in O=P(c1ccccc1)(c1ccccc1)c1ccccc1Oc1ccccc1P(=O)(c1ccccc1)c1ccccc1.

The source of these data is the Deep4Chem optical property database.

As for `CCCCC(CC)COc1ccc2nc(-c3ccc(-c4ccccc4)s3)sc2c1` (stereo unspecified), the photoluminescence quantum yield (in ClCCl) is 0.58.
As for `F[B-]1(F)Oc2ccccc2-c2cnc3ccccc3[n+]21`, under “in Cc1ccccc1”, the photoluminescence quantum yield was found to be 0.086.
Regarding `CC(C)(C)c1ccc2c(c1)c1cc(C(C)(C)C)ccc1n2-c1ccc(-c2nc(-c3ccc(P(=O)(c4ccccc4)c4ccccc4)cc3)nc(-c3ccc(P(=O)(c4ccccc4)c4ccccc4)cc3)n2)cc1`, under setting [1], the photoluminescence quantum yield is 0.96.
As to `c1ccc(-c2nc(-c3ccccc3)nc(-c3ccc(-n4c5ccccc5c5c6c(ccc54)-c4ccccc4C6(c4ccccc4)c4ccccc4)cc3)n2)cc1`, under setting [1], the photoluminescence quantum yield came to 0.979.
`CCCCCCCCn1c(=O)c2cc3c(-c4ccc(N(c5ccccc5)c5ccccc5)cc4)c4cc5c(=O)n(CCCCCCCC)c(=O)c5cc4c(-c4ccc(N(c5ccccc5)c5ccccc5)cc4)c3cc2c1=O` yielded a photoluminescence quantum yield (in ClC(Cl)Cl) of 0.03.
Turning to `c1cc2ccc1-c1ccc(cc1)-c1ccc(s1)-c1ccc(cc1)-c1ccc(cc1)-c1ccc(s1)-c1ccc(cc1)-c1ccc(cc1)-c1ccc(s1)-c1ccc(cc1)-c1ccc(cc1)-c1ccc-2s1`, for the setting “in C1CCOC1”, the photoluminescence quantum yield turned out to be 0.37.
Turning to `CC1(C)C(/C=C/C2=C(c3ccc(C(=O)O)cc3)C(=C/C=C3/N(CCCCS(=O)(=O)[O-])c4ccc5ccccc5c4C3(C)C)/CCC2)=[N+](CCCCS(=O)(=O)[O-])c2ccc3ccccc3c21`, the photoluminescence quantum yield (in CO) was 0.092.
Consider `CN(C)c1ccc(/C=C/c2ccccn2)cc1`, for which the photoluminescence quantum yield runs as follows: (in C1CCCCC1) 0.017; (in C1CCOC1) 0.042; (in C1COCCO1) 0.031; (in CC#N) 0.048; (in CC(C)O) 0.024; (in CCCCCC) 0.016. The photoluminescence quantum yield reads like this: (in CCCCCCC) 0.017; (in CCCCO) 0.026; (in CCO) 0.032; (in CCOC(C)=O) 0.03; (in CCOCC) 0.022; (in CN(C)C=O) 0.051. In addition, the photoluminescence quantum yield was determined as 0.019 (in CO), 0.054 (in CS(C)=O) and 0.015 (in O).
With `COCCOCCOCCOCC(COCCOCCOCCOC)Oc1cc(/C=C/c2ccc(/C=C(\C#N)c3ccc(C(F)(F)F)cc3)cc2)c(OC(COCCOCCOCCOC)COCCOCCOCCOC)cc1/C=C/c1ccc(/C=C(\C#N)c2ccc(C(F)(F)F)cc2)cc1`, under “in ClCCl”, the photoluminescence quantum yield was determined as 0.55.
`CCOC(=O)c1ccccc1-c1c2ccc(=[N+](CC)CC)cc-2oc2c1oc1cc(N)ccc12` registered a photoluminescence quantum yield (in CCO) of 0.501, a photoluminescence quantum yield (in ClCCl) of 0.732 and a photoluminescence quantum yield (in O) of 0.088.
With `Cc1cc(C)c(B(c2c(C)cc(C)cc2C)c2cc3ccc4ccccc4c3c3c2ccc2ccccc23)c(C)c1`, the photoluminescence quantum yield by setting is: (in C1CCCCC1) 0.65; (in C1CCOC1) 0.73; (in CC#N) 0.58; (in ClC(Cl)Cl) 0.8; (in c1ccccc1) 0.89.
Regarding `CCCCc1cc(-c2cccc(COC)c2)oc1-c1cccc(-c2cc(CCCC)c(-c3cccc(-c4oc(-c5cccc(-c6oc(-c7cccc(COC)c7)cc6CCCC)c5)cc4CCCC)c3)o2)c1`, under “in ClC(Cl)Cl”, the photoluminescence quantum yield is 0.23.
Consider `CCC(C)(C)c1ccc2c(c1)C(CCOC)(CCOC)c1cc(-c3ccc(-c4ccc5c(c4)C(CCOC)(CCOC)c4cc(C(C)(C)CC)ccc4-5)cc3)ccc1-2`, for which the photoluminescence quantum yield (in C1CCCCC1) was determined as 0.9.
In the case of `O=C(c1ccc(N2c3ccccc3Oc3ccccc32)cc1)c1cccc(C(=O)c2ccc(N3c4ccccc4Oc4ccccc43)cc2)c1`, the photoluminescence quantum yield is, setting by setting: (in Cc1ccccc1) 0.36; (in c1cc(-c2cccc(-n3c4ccccc4c4ccccc43)c2)cc(-n2c3ccccc3c3ccccc32)c1) 0.71.
Under “in ClC(Cl)Cl”, `CC1=c2cc3c(C)c4n(c3cc2=[N+]2C1=Cc1c3ccccc3c(C)n1[B-]2(F)F)[B-](F)(F)[N+]1=C(C)c2ccccc2C1=C4` registered a photoluminescence quantum yield of 0.36.
`CCCCn1c(-c2ccc(-c3nnc(-c4ccc(-c5nc6c7ccccc7c7ccccc7c6n5CCCC)cc4)o3)cc2)nc2c3ccccc3c3ccccc3c21` returned a photoluminescence quantum yield (in ClCCl) of 0.78.
Consider `[O-][n+]1c(-c2ccccc2)cc(N2CCOCC2)nc1/C=C/c1ccccc1`, for which the photoluminescence quantum yield (in ClCCl) came out at 0.2.
`C[Si](C)(C)O[Si]1(O[Si](C)(C)C)n2c3c4ccccc4c2/N=C2N=C(/N=c4/c5ccccc5/c(n41)=N/C1=NC(=N\3)/c3ccccc31)c1ccccc1\2` yielded a photoluminescence quantum yield (in CN(C)C=O) of 0.42.
Regarding `CCOC(=O)c1sc2nc3c(c(C#N)c2c1N)CCCCCC3`, the photoluminescence quantum yield (in c1ccccc1) turned out to be 0.063.
`O=P1(c2ccccc2)c2ccccc2-c2sc3ccccc3c21` (stereo unspecified) returned a photoluminescence quantum yield (in ClCCl) of 0.71.
Compound `COCCC1=Cc2nc1ccc1[nH]c(cc1CCOC)c1nc(c(O)cc3[nH]c2cc3CCOC)C(CCOC)=C1` yielded a photoluminescence quantum yield (in Cc1ccccc1) of 0.18.
`C(#Cc1ccccc1)c1ccccc1`: the photoluminescence quantum yield (in CO) was 0.0015, the photoluminescence quantum yield (in ClC(Cl)Cl) came to 0.003 and the photoluminescence quantum yield (in ClCCl) stood at 0.003.
`CO[B-]1(OC)n2c(C)cc(C)c2C(c2ccc(I)cc2)=C2C(C)=CC(C)=[N+]21` gave a photoluminescence quantum yield (in ClC(Cl)Cl) of 0.52.
As for `C(#Cc1c2ccccc2c(-c2ccccc2)c2cc3ccccc3cc12)c1ccccc1`, the photoluminescence quantum yield (in ClCCl) was 0.79.
In turn, `COc1ccc(C#Cc2ccc(C#N)cc2)cc1OC` had a photoluminescence quantum yield (in C1COCCO1) of 0.16; a photoluminescence quantum yield (in CC#N) of 0.13; a photoluminescence quantum yield (in CCCCCC) of 0.16; a photoluminescence quantum yield (in CCCCCCC) of 0.16; a photoluminescence quantum yield (in CCCO) of 0.13; a photoluminescence quantum yield (in CCOC(C)=O) of 0.13. Also, the photoluminescence quantum yield was 0.21 (in CS(C)=O), 0.18 (in ClC(Cl)Cl) and 0.22 (in ClCCl).
For `c1ccc(-c2ccc(-c3ccc4c(c3)CCCO4)cc2)cc1`, the photoluminescence quantum yield (in C1CCCCC1) stood at 0.62.
Take `O=c1c2ccccc2n(-c2ccc(-c3ccc(-n4c5ccccc5c5ccccc54)cc3)cc2)c2ccccc12`: the photoluminescence quantum yield (in ClCCl) turned out to be 0.28.
`CCCCCCn1c2cc(/C=C/c3ccccc3)ccc2c2ccc(/C=C/c3ccccc3)cc21` registered a photoluminescence quantum yield (in ClC(Cl)Cl) of 0.91.
In turn, `C(#Cc1cccc(C#Cc2ccc(-n3c4ccccc4c4ccccc43)cc2)c1)c1ccc(-n2c3ccccc3c3ccccc32)cc1` registered a photoluminescence quantum yield (in ClCCl) of 0.8.
Compound `CC(C)(C)c1cc2ccc3c(N(c4ccccc4)c4ccccc4)cc(N(c4ccccc4)c4ccccc4)c4ccc(c1)c2c34` gave a photoluminescence quantum yield (in ClCCl) of 0.82.
`Fc1ccc(-[c+]2c3ccccc3sc3ccccc32)cc1` returned a photoluminescence quantum yield (in CC#N) of 0.018.
For the setting “in CO”, `COC(=O)COc1ccc(/C=C/C2=[N+]3C(=C(c4ccc(N(C)C)cc4)c4c(C)cc(C)n4[B-]3(F)F)C(C)=C2)cc1` had a photoluminescence quantum yield of 0.67.
Turning to `c1ccc(-c2c3ccc(=[N+]4CCCCC4)cc-3oc3cc(N4CCCCC4)ccc23)cc1`, the photoluminescence quantum yield is 0.3 (in CCO) and 0.89 (in ClCCl).
For `CN(C)c1c2ccccc2cc2ccccc12`, the photoluminescence quantum yield (in C1CCCCC1) is 0.008; the photoluminescence quantum yield (in C1CCOC1) stood at 0.01; the photoluminescence quantum yield (in C1COCCO1) stood at 0.013; the photoluminescence quantum yield (in CC#N) is 0.007; the photoluminescence quantum yield (in CCO) is 0.007; the photoluminescence quantum yield (in CN(C)C=O) came out at 0.016. In addition, the photoluminescence quantum yield is, setting by setting: (in CO) 0.008; (in COCCOC) 0.007; (in CS(C)=O) 0.018; (in O) 0.011; (in OCC(O)CO) 0.068; (in OCCO) 0.022.
`C(=C\c1nc2c3ccccc3c3ccccc3c2o1)/c1ccccc1`: for the setting “in CC#N”, the photoluminescence quantum yield stood at 0.23.
For the compound `CCCCN1C(=O)C(=C/C=C/C=C/C=C2N(CCCC)c3ccccc3N2CCCC)C(=O)N(CCCC)C1=S`, the photoluminescence quantum yield stood at 0.099 (in CC#N); 0.178 (in CCCCCC); 0.074 (in CCO); 0.127 (in CN(C)C=O); 0.056 (in CO); 0.73 (in Cc1ccccc1). Also, the photoluminescence quantum yield (in ClC(Cl)Cl) was 0.365, the photoluminescence quantum yield (in ClCCl) came to 0.266 and the photoluminescence quantum yield (in OCC(F)(F)F) stood at 0.023.
Regarding `CCN(CC)c1ccc2c(c1)oc(=O)c1cc3c(-c4ccccc4)nn(C)c3nc12`, the photoluminescence quantum yield (in C1CCCCC1) was determined as 0.338; the photoluminescence quantum yield (in CCOC(C)=O) is 0.202; the photoluminescence quantum yield (in CN(C)C=O) turned out to be 0.015; the photoluminescence quantum yield (in CO) amounted to 0.002; the photoluminescence quantum yield (in ClCCl) turned out to be 0.292.
In the case of `N#Cc1ccc(-c2nc(-c3ccccc3)c(-c3ccccc3)[nH]2)cc1`, for the setting “in CO”, the photoluminescence quantum yield came out at 0.52.
`Cc1c2c(nc3ccccc13)-c1cc3c(cc1CC2)-c1nc2ccccc2c(C)c1CC3` came in with a photoluminescence quantum yield (in ClC(Cl)Cl) of 0.435.
`COCCOc1ccc(OCCOC)c(C=O)c1` yielded a photoluminescence quantum yield (in CC(C)(C)O) of 0.13; a photoluminescence quantum yield (in CC(C)CO) of 0.21; a photoluminescence quantum yield (in CC(C)O) of 0.21; a photoluminescence quantum yield (in CCCCO) of 0.23; a photoluminescence quantum yield (in CCCO) of 0.25; a photoluminescence quantum yield (in CCO) of 0.2. For the same compound, the photoluminescence quantum yield is, setting by setting: (in CN(C)C=O) 0.03; (in CNC=O) 0.14; (in CO) 0.24; (in NC=O) 0.44; (in O) 0.11.
`O=C(O)c1ccc(-c2ccc(-c3nc(-c4ccccc4)c4ccccn34)cc2)s1`: under “in CC#N”, the photoluminescence quantum yield came to 0.44.
As to `N#Cc1ccc(/C=C/c2c3ccccc3cc3ccccc23)cc1`, the photoluminescence quantum yield by setting is: (in CC1CCCCC1) 0.27; (in CC#N) 0.003; (in CO) 0.029; (in Cc1ccccc1) 0.23; (in ClC(Cl)Cl) 0.05.
